Consider seven compounds from patent EP3235511A1, “SULPHONAMIDE COMPOUNDS FOR USE IN THE TREATMENT OF HHV-8-ASSOCIATED DISEASES” (UNIVERSITA' DEGLI STUDI DI CAGLIARI, priority 2016, dated 2017).

In brackets after ≈: the same amount, converted by molar mass. Like-named read-outs stand apart in the source and are kept apart here.

Data set [1] can be described thus: Cytotoxicity (MTT cell viability) on HUVEC primary cells. The format is cell-based. As to conditions: human. As for the experimental part: (§1) A stock of human HUVEC umbilical cord primary cells (Invitrogen Life Technologies, UK) was cultured in a culture medium M200 (Gibco, Life Technologies, UK) with low serum growth supplement (LSGS, Invitrogen Life Technologies, UK). The HUVEC cells were always kept in a semi-confluent state and were sub-cultured at least once a week. Prior to testing, the cells were sub-cultured no more than 3-5 times. The BC3 cells permanently infected with HHV 8 were cultured in a RPMI 1640 medium supplemented with a 10% fetal calf serum (FCS) (Invitrogen Life Technologies, UK). The BC3 cells were used to produce 100x concentrated stocks of HHV 8, as described in the literature. The pellets of the virus was suspended in RPMI, filtered through a 0.22 µm filter and stored at -80 °C until use. The quantitative analysis of viral genomes present in the stock preparation was obtained by a real-time polymerase chain reaction (qPCR). […] For infection of cells, approximately 5.0 x 10^4 HUVEC cells/mL were seeded in 12 multi-well plates. The cells were infected with HHV 8, concentrated to a multiplicity of at least 10-20 genomes per cell in an M200 containing 2 µg/mL polibrene (esadimetrin bromide) for 2 hours at 37 °C. […] Only cell mono-layers with at least 70-80% of HHV 8 infected cells were used for the experiments.

Data set [2] can be described thus: Cytotoxicity (MTT cell viability) on BC3 cells. The format is cell-based. To be noted: human. As for the experimental part: as §1
A further data set concerns HHV 8 in latent stage. Kind of data set: Detection of latent HHV 8 DNA by RT-PCR in BC3 cells. The class given is cell-based. To be noted: BC-3, 144 h, 6 days of culture, drug 100 µM, read-out: inhibition of viral DNA (antiviral activity). As for the experimental part: The antiviral activity of the sulphonamide compounds of the present invention was investigated using two different types of tests. In the first one, the DNA of HHV 8 in latent stage was detected by RT-PCR (Real Time- Polymerase Chain Reaction) (see Fig. 1) and in the second one, the LANA antigen was tested using a flow cytometric assay.

The nature of a further data set: in vitro. As to conditions: human, thp-1 cells.
Data set [3] deals with KSHV virus. To be noted: lytic stage; cited from earlier work.
The test system of data set [4] is KSHV virus. To be noted: latent stage; cited from earlier work.
The target in a further data set is T1, MDM2-p53 complex (Homo sapiens, UniProt Q00987).
T1 construct: purchased Sigma
T1 sequence (Q00987 whole entry, one chain of several): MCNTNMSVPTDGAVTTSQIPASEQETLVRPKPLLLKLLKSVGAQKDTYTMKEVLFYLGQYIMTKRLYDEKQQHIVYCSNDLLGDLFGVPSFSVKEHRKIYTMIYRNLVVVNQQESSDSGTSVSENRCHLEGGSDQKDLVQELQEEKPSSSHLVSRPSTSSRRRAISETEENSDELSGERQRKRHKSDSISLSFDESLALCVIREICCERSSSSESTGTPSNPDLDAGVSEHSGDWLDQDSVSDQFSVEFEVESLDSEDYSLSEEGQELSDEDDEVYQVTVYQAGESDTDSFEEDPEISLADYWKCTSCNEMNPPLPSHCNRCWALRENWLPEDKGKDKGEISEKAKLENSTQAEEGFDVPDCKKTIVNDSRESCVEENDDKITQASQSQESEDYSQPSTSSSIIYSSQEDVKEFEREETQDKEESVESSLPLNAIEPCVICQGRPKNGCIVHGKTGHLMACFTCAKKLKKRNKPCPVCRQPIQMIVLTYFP
Kind of data set: ELISA-based P53-MDM2 binding assay. As for the experimental part:
In short, 96-well ELISA micro-plates (from Greiner Bio One, Austria) were coated for incubation overnight with 2 µg/mL p53 (human recombinant from Sigma) in PBS at 4 °C. The next day, the coating buffer was removed and the plates were incubated with Chemi-Blocker blocking buffer (from Merck-Millipore, Italy) for 2 hours at room temperature to block non-specific protein binding sites on the plate. […] The compounds under test were dissolved in DMSO (dimethyl sulfoxide, 5 mg/mL stock solution) and diluted in blocking buffer to obtain a final concentration of 50 µg/mL. The total incubation time of GST-MDM2 was 1 h. In order to evaluate the possible interactions of the compounds of the invention with, alternately, p53 and/or MDM2, the tests were conducted in three ways: a) pre-incubation with p53: the compounds were added to the coated micro-wells 30 min. before the GST-MDM2; b) pre-incubation with MDM2: the compounds were added to the GST-MDM2 solution for 30 minutes before adding to the wells; c) incubation after the formation of the p53-MDM2 complex: the compounds were added to the wells 30 minutes after treatment of GST-MDM2. After incubation, the plates were washed 4 times with PBST to remove the unbound MDM2 and incubated with a specific rabbit anti-GST monoclonal antibody (Sigma) diluted in 1/2000 blocking buffer for 1 h, followed by washing and incubation with a secondary immunoglobulin antibody conjugated with 1/200 anti-rabbit (horseradish) HR-peroxidase for 1 h (goat anti-rabbit IgG-HRP, Sigma). […] The absorbance was measured with a Microtiter plate reader (Model 680, from Bio-Rad, Hercules, CA) equipped with a 450 nm filter and the respective luminescence units (RLU) were measured. The inhibition percentage of the p53-MDM2 complex was calculated as follows: […]
Data are expressed as µg/mL ± SE average of three independent experiments.

Where [5] appears, read: read-out: inhibition of MDM2-p53 complex formation.

Protocol for in vitro: The THP-1 cells were purchased from Life Technologies (UK) and were cultured in RPMI 1640 medium with 10% fetal bovine serum (FBS).
The cytotoxicity of the compounds under test was assessed by measuring the effect on the cell morphology and the cell viability in vitro. Cell mono-layers were prepared in 24-well tissue culture plates and exposed to various concentrations of the compounds being tested.
The plates were controlled by optical microscopy after 24, 48 and 72 h. Cytotoxicity was evaluated as morphologic changes (for example, rounding, contractions, detachments). The cell viability was determined by means of a tetrazolium-based colorimetric method using the compound 3-(4,5-dimethylthiazol-2-yl)-2,5-diphenyl-tetrazolium bromide (MTT). The cytotoxic dose of 50% (CD50) is the concentration of the compound which reduces the absorbency of the control sample by 50%.

Consider `[H]/N=C(/N)NS(=O)(=O)c1ccc(N)cc1` [SG3, sulphaguanidine], for which the CC50 was approximately 500 µg/mL (≈ 2330 µM) in data set [1], 100 µg/mL (≈ 467 µM) in data set [2] and approximately 125 µg/mL (≈ 583 µM) in the data set “in vitro”. Also, the inhibition at 100 µM in the data set with HHV 8 in latent stage is 52.3%.
For the compound `O=C(O)P(=O)(O)O` [Foscarnet], in the data set on KSHV virus [3], the “Action on the lytic virus” value is “inhibition”. The “Action on the latent virus” value with KSHV virus [4] is recorded as “no inhibition”.
As to `Nc1nc2c(ncn2COCCO)c(=O)[nH]1` [Acyclovir], the “Action on the lytic virus” value with KSHV virus [3] is recorded as “inhibition”. Besides, in the data set with KSHV virus [4], the “Action on the latent virus” value is reported as “no inhibition”.
Consider `Nc1ccc(S(=O)(=O)Nc2nccs2)cc1` [ST5, sulfathiazole], for which the inhibition at 50 µg/mL at MDM2-p53 complex (added to the ELISA wells 60 minutes after the complex had formed, 50 µg/mL, p = < 0.01, read-out: breaking down the complex already formed) is approximately 48%; at MDM2-p53 complex (compound added before the formation of the complex, 50 µg/mL, read-out: inhibition of MDM2-p53 complex formation), approximately 70%. Further, the CC50 in data set [1] was approximately 250 µg/mL (≈ 979 µM); in data set [2] it was 100 µg/mL (≈ 393 µM); in “in vitro”, approximately 30 µg/mL (≈ 117 µM). Besides, the inhibition at 100 µM in the data set on HHV 8 in latent stage worked out at 88.5%.
With `CC1(C)[C@@H](O[C@H]2O[C@H](C(=O)O)[C@@H](O)[C@H](O)[C@H]2O[C@@H]2O[C@H](C(=O)O)[C@@H](O)[C@H](O)[C@H]2O)CC[C@]2(C)[C@H]3C(=O)C=C4[C@@H]5C[C@@](C)(C(=O)O)CC[C@]5(C)CC[C@@]4(C)[C@]3(C)CC[C@@H]12` [Glycyrrhizic acid], the “Action on the lytic virus” value with KSHV virus [3] is reported as “inhibition”. The “Action on the latent virus” value in the data set with KSHV virus [4] is recorded as “Apoptosis”.
On to `Cc1cc(NS(=O)(=O)c2ccc(N)cc2)no1` [BC6, sulfamethoxazole], for which the inhibition at 50 µg/mL on MDM2-p53 complex (setting [5]) is 56%. The inhibition at 100 µM in the data set with HHV 8 in latent stage stood at 93%.
Consider `Nc1ccc(S(N)(=O)=O)cc1` [SA4, sulphanilamide], for which the inhibition at 50 µg/mL at MDM2-p53 complex (setting [5]) turned out to be 50%. Also, the inhibition at 100 µM in the data set with HHV 8 in latent stage amounted to 92%.
